Reference: the supplement of paper PMC6723410

Test system: GUMC-403
Assay: viability at highest tested concentration (max response) relative to DMSO (% of DMSO control); higher = less cytotoxic
Conditions: library / dose series: MIPE library, 11-point 1:3 dilution; top concentration 1.84 µM; 48 h
Summary of the method: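 Patient-derived GUMC-403 papilloma cells grown by conditional reprogramming were plated at 700/well in 5 μL F + Y medium in 1536-well plates and incubated overnight at 37 °C. They then received 23 nL of MIPE 4.0 compounds by pin tool (11-point 1:3 series) for 48 h. CellTiter-Glo luminescence was read on a ViewLux and normalised with DMSO wells as 100% and empty wells as 0%. The value is viability at the highest tested concentration relative to DMSO control.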

Q: Which viability does the source give for `CCC(=C/[C@H](C)C/C=C/C(C)=C/[C@@H](C)C(=O)[C@@H](C)[C@H](O)[C@@H](C)C/C(C)=C/C(=O)O)/C=C/[C@@H]1OC(=O)C=C[C@@H]1C` here?
A: 97.2

Same assay, conditions: library / dose series: MIPE library, 11-point 1:3 dilution; top concentration 46.1 µM; 48 h

Q: How did the viability turn out when `C[C@H]1COC/2=C1/C(=O)C(=O)C3=C4CCCC(C)(C)C4=CC=C23` was run?
A: 137

Q: `CCC(CC)[C@H](NC(C)=O)[C@@H]1[C@H](O)[C@@H](C(=O)O)C[C@H]1NC(=N)N` was tested. Which viability did it give?
A: 106

Q: `CC1=C(/C=C/C(C)=C/C=C/C(C)=C/C=C/C=C(C)/C=C/C=C(C)/C=C/C2=C(C)CCCC2(C)C)C(C)(C)CCC1` was tested. Which viability did it give?
A: 113

Q: Which viability does the source give for `C[C@@H]1C[C@@H]([C@H](O)CC2CC(=O)NC(=O)C2)C(=O)[C@@H](C)C1` here?
A: 89.5

Q: Which viability does the source give for `COc1cc2nccc(Oc3ccc(NC(=O)Nc4cc(C)on4)c(Cl)c3)c2cc1OC` here?
A: 73.5

Q: Which viability does the source give for `NC(=O)c1cnccn1` here?
A: 131

Q: `CO/N=C(\C(=O)N[C@@H]1C(=O)N2C(C(=O)OCOC(=O)C(C)(C)C)=C(/C=C\c3scnc3C)CS[C@H]12)c1csc(N)n1` was tested. Which viability did it give?
A: 137

Q: With `CC(C)(C)c1cc(NC(=O)Nc2ccc(-c3cn4c(n3)sc3cc(OCCN5CCOCC5)ccc34)cc2)no1` as the compound, how does the viability read?
A: 121

Q: With `O=C(c1ccc(F)cc1)N1CCC[C@H](c2nc(-c3ccc(F)cc3)no2)C1` as the compound, how does the viability read?
A: 119

Q: For `CCN(CC)CCCC(C)Nc1nc(C)cc(Nc2ccc3nc(C)cc(N)c3c2)n1` (stereo unspecified), which viability is on record?
A: 106

Q: Which viability does the source give for `O=C1Nc2ccc(Cl)cc2C(C#CC2CC2)(C(F)(F)F)O1` (stereo unspecified) here?
A: 95.5

Q: `CO[C@@H]1[C@H](N(C)C(=O)c2ccccc2)C[C@H]2O[C@]1(C)n1c3ccccc3c3c4c(c5c6ccccc6n2c5c31)C(=O)NC4` was tested. Which viability did it give?
A: 66.2

Q: `CN1C(=O)C[C@H](C(=O)N[C@@H](Cc2cnc[nH]2)C(=O)N2CCC[C@H]2C(N)=O)NC1=O` was tested. Which viability did it give?
A: 103

Q: With `C\C1=C(\C=C(\C#N)C(=O)N1)C2=CC=NC=C2` as the compound, how does the viability read?
A: 119

Q: Which viability does the source give for `N\C1=N\C2=C(N=C[N]2COCCO)C(=O)N1` here?
A: 117

Q: For `Cc1c(-c2cccc3c(CCCOc4cccc5ccccc45)c(C(=O)O)n(Cc4cccnc4)c23)c(COc2ccc(N3CCN([S+](=O)([O-])N(C)C)CC3)cc2)nn1C`, which viability is on record?
A: 90.8

Q: For `CCCCNc1cc(C(=O)O)cc([S+](N)(=O)[O-])c1Oc1ccccc1`, which viability is on record?
A: 138

Q: Which viability does the source give for `N[C@@H](Cc1cc(I)c(Oc2cc(I)c(O)c(I)c2)c(I)c1)C(=O)O` here?
A: 123

Q: How did the viability turn out when `c1coc(CNc2ncnc3nc[nH]c23)c1` was run?
A: 108

Q: `CN1CC(=O)\N=C1\NC(=O)NC2=CC(=CC=C2)Cl` was tested. Which viability did it give?
A: 91.6

Q: `COc1cc2nc(N3CCN(C(=O)C4COc5ccccc5O4)CC3)nc(N)c2cc1OC` (stereo unspecified) was tested. Which viability did it give?
A: 115

Q: How did the viability turn out when `CCCCCN(CCC12CC3CC(CC(C3)C1)C2)C(=O)NCCCc1ccncc1` was run?
A: 89.8

Q: With `FC1=C(C=C(C\C2=N\NC(=O)C3=C2C=CC=C3)C=C1)C(=O)N4CCN(CC4)C(=O)C5CC5` as the compound, how does the viability read?
A: 82.6

Q: `CCc1cc(-c2n[nH]c(C)c2-c2ccc3c(c2)OCCO3)c(O)cc1O` was tested. Which viability did it give?
A: 88.7

Q: Which viability does the source give for `Cc1cnn(C)c1C(=O)Nc1cc(Nc2ccc3c(/C=C/c4ccccn4)n[nH]c3c2)ccc1F` here?
A: 125

Q: With `COC1=C(OCCCN2CCOCC2)C=C3N=CC=C(OC4=CC=C(C=C4F)\C5=C\N=C(\NC6=CC=C(F)C=C6)N(C)C5=O)C3=C1` as the compound, how does the viability read?
A: 72.6

Q: How did the viability turn out when `Oc1ccc2c3c1O[C@H]1c4[nH]c5c(c4C[C@@]4(O)[C@@H](C2)N(CC2CC2)CC[C@]314)C[C@@]1(O)[C@H]2Cc3ccc(O)c4c3[C@@]1(CCN2CC1CC1)[C@H]5O4` was run?
A: 142

Q: How did the viability turn out when `O=[S+]([O-])(/N=C/c1c(O)ccc2ccccc12)c1cccs1` was run?
A: 87.9

Q: `CN1CCN(CC1)C2=C3OCN(C)N4\C=C(C(O)=O)/C(=O)C(=C34)C=C2F` was tested. Which viability did it give?
A: 123

Q: `O=P(O)(O)C(O)(Cc1cccnc1)P(=O)(O)[O][Na]` (stereo unspecified) was tested. Which viability did it give?
A: 123

Q: `O=C(O)CCNc1cc(N2CCc3ccccc3CC2)nc(-c2ccccn2)n1` was tested. Which viability did it give?
A: 125

Q: With `CC(=O)O[C@H]1C(=O)[C@]2(C)[C@@H](O)C[C@H]3OC[C@@]3(OC(C)=O)C2[C@H](OC(=O)C4=CC=CC=C4)[C@]5(O)C[C@H](OC(=O)[C@H](O)[C@@H](NC(=O)C6=CC=CC=C6)C7=CC=CC=C7)\C(=C1/C5(C)C)C` (stereo partly specified) as the compound, how does the viability read?
A: 97.8

Q: How did the viability turn out when `Cc1ccc(C(=O)Nc2cccc(C(F)(F)F)c2)cc1Nc1nc(-c2cccnc2)nc2c1cnn2C` was run?
A: 87.4

Q: With `NC(=O)OCC(COC(N)=O)c1ccccc1` as the compound, how does the viability read?
A: 110

Q: How did the viability turn out when `CC(c1cc2ccccc2s1)N(O)C(N)=O` (stereo unspecified) was run?
A: 96.7

Q: With `CCN(CC)CCOC1=CC=C(NC2=NC=C3\C=C(/C(=O)N(C)C3=N2)C4=C(Cl)C=CC=C4Cl)C=C1` as the compound, how does the viability read?
A: 75.4

Q: Which viability does the source give for `CO[C@H]1C[C@@H]2CC[C@@H](C)[C@@](O)(O2)C(=O)C(=O)N2CCCC[C@H]2C(=O)O[C@H]([C@H](C)C[C@@H]2CC[C@@H](OP(C)(C)=O)[C@H](OC)C2)CC(=O)[C@H](C)/C=C(\C)[C@@H](O)[C@@H](OC)C(=O)[C@H](C)C[C@H](C)/C=C/C=C/C=C/1C` here?
A: 104

Q: With `CC(C)OC(=O)C(C)(C)Oc1ccc(C(=O)c2ccc(Cl)cc2)cc1` as the compound, how does the viability read?
A: 117

Q: With `CC(C)[C@H]1C(=O)N[C@H](CO)Cc2c[nH]c3cccc(c23)N1C` as the compound, how does the viability read?
A: 107

Q: How did the viability turn out when `CNC(=O)c1cc(Oc2ccc(NC(=O)Nc3ccc(Cl)c(C(F)(F)F)c3)cc2)ccn1` was run?
A: 87

Q: With `C[C@@]1(C(=O)Nc2ccc(F)nc2)CCCN1c1nc(Nc2cc(C3CC3)[nH]n2)c2cccn2n1` as the compound, how does the viability read?
A: 63.1

Q: For `COC(=O)N[C@H](C(=O)N[C@@H](Cc1ccccc1)[C@@H](O)CN(Cc1ccc(-c2ccccn2)cc1)NC(=O)[C@@H](NC(=O)OC)C(C)(C)C)C(C)(C)C`, which viability is on record?
A: 112

Q: Which viability does the source give for `O=C(CO)N1CCC(c2n[nH]c(-c3ccc(Cl)cc3)c2-c2ccncn2)CC1` here?
A: 109

Q: Which viability does the source give for `CCOC(=O)N1CCN(/[N+]([O-])=N/Oc2cc(O/N=[N+](\[O-])N3CCN(C(=O)OCC)CC3)c([N+](=O)[O-])cc2[N+](=O)[O-])CC1` here?
A: 118

Q: How did the viability turn out when `CN(C)Cc1ccc(-c2nc3cccc4c3n2CCNC4=O)cc1` was run?
A: 88.8

Q: `CC(=O)O/N=C1/C(=C2\C(=O)Nc3cc(Br)ccc32)Nc2ccccc21` was tested. Which viability did it give?
A: 122

Q: With `CN(C)Cc1cccc(N/C(=C2\C(=O)Nc3cc(C(=O)N(C)C)ccc32)c2ccccc2)c1` as the compound, how does the viability read?
A: 95.1

Q: Which viability does the source give for `Cc1nnc(N[S+](=O)([O-])c2ccc(N)cc2)s1` here?
A: 113

Q: How did the viability turn out when `CCCCCNC(=N)N/N=C/c1c[nH]c2ccc(OC)cc12` was run?
A: 69.6

Q: Which viability does the source give for `O=C(O)Cc1cccc(OCCCN(Cc2cccc(C(F)(F)F)c2Cl)CC(c2ccccc2)c2ccccc2)c1` here?
A: 136

Q: For `CC(C)(S)[C@@H](N)C(=O)O`, which viability is on record?
A: 128

Q: Which viability does the source give for `CC1(C)CCC(=C(\C1)C2=CC=C(Cl)C=C2)/CN3CCN(CC3)C4=CC(=C(C=C4)C(=O)N[S+]([O-])(=O)C5=CC=C(NCC6CCOCC6)C(=C5)[N+]([O-])=O)OC7=CN=C8[NH]C=CC8=C7` here?
A: 105

Q: For `Cc1cnc(Nc2ccc(F)cc2Cl)nc1-c1c[nH]c(C(=O)N[C@H](CO)c2cccc(Cl)c2)c1`, which viability is on record?
A: 80.9

Q: For `CC(C)=CCC/C(C)=C/CC/C(C)=C/CSc1ccccc1C(=O)O`, which viability is on record?
A: 72

Q: With `Cc1cccc(-c2n[nH]cc2-c2ccc3ncccc3n2)n1` as the compound, how does the viability read?
A: 126

Q: `Cc1cc(CN2CCN(c3c(Br)cnc4[nH]c(-c5ccc(N6CCN(C)CC6)cc5)nc34)CC2)no1` was tested. Which viability did it give?
A: 108

Q: Which viability does the source give for `C[C@@H]1[C@H]\2[C@H](O)[C@H]3[C@H](N(C)C)\C(=C(C(N)=O)/C(=O)[C@@]3(O)\C(=C2C(=O)C4=C(O)C=CC=C14)O)O` here?
A: 98.3

Q: With `CC(C)(C)NCC(O)c1ccc(O)c(CO)c1` (stereo unspecified) as the compound, how does the viability read?
A: 109

Q: For `CCNC(=O)c1cc2c(-c3cc(OCCN4CCCC4)c(Cl)cc3Cl)nc(N)nc2s1`, which viability is on record?
A: 58.2

Q: With `O=[N+]([O-])c1ccc(Nc2ccccc2-c2ccccc2)c2nonc12` as the compound, how does the viability read?
A: 106

Q: `O=C(NCC[S+](=O)([O-])c1ccc(C(F)(F)F)cn1)c1ccc(Cl)cc1` was tested. Which viability did it give?
A: 107

Q: With `CC1CCC(C(=O)N(c2cc(C#CC(C)(C)C)sc2C(=O)O)C2CCC(O)CC2)CC1` (stereo unspecified) as the compound, how does the viability read?
A: 106

Q: For `C[C@H]1[C@@H](CC(C[C@H]2O[C@@H]3O[C@]4(C)CC[C@H]5[C@H](C)CC[C@@H]([C@H]2C)[C@@]35OO4)C[S+](=O)([O-])c2ccc(COC(=O)N(C)C)cc2)O[C@@H]2O[C@]3(C)CC[C@H]4[C@H](C)CC[C@@H]1[C@@]24OO3`, which viability is on record?
A: 104

Q: Which viability does the source give for `N[C@@H](C(=O)N[C@H]1[C@H]2SC\C(=C(/N2C1=O)C(O)=O)Cl)C3=CC=CC=C3` here?
A: 122

Q: Which viability does the source give for `Cc1nc(-c2ccc(-c3ccc(C(=O)N4CCc5cc6c(cc54)C4(CCN(C)CC4)CO6)cc3)c(C)c2)no1` here?
A: 124

Q: With `Clc1ccccc1CN1CCc2sccc2C1` as the compound, how does the viability read?
A: 141

Q: How did the viability turn out when `N[C@H](CSC(c1ccccc1)(c1ccccc1)c1ccccc1)C(=O)O` was run?
A: 103

Q: How did the viability turn out when `COc1nc(-c2ccc3c(c2)OCO3)n(-c2ccc(NC(=O)CSc3ccccc3)cc2)n1` was run?
A: 101

Q: With `N[C@@H]1C[C@H]1c1ccccc1` as the compound, how does the viability read?
A: 108

Q: `O=[N+]([O-])c1cn2c(n1)OC[C@@H](OCc1ccc(OC(F)(F)F)cc1)C2` was tested. Which viability did it give?
A: 111

Q: How did the viability turn out when `COc1ccc([S+](=O)([O-])Nc2cccnc2Nc2ccc(O)cc2)cc1` was run?
A: 99.9

Q: For `O=C([O-])[C@H](CC(=O)N1C[C@H]2CCCC[C@H]2C1)Cc1ccccc1`, which viability is on record?
A: 144

Q: With `CC(C)C[C@H](NC(=O)[C@@H](O)[C@H](N)Cc1ccccc1)C(=O)O` as the compound, how does the viability read?
A: 102

Same assay, conditions: library / dose series: MIPE library, 11-point 1:3 dilution; top concentration 92.2 µM; 48 h

Q: `COC1=CC=CC=C1C2=CC=CC(=C2)C/3=C(O)/C4=CC(=C(Cl)C=C4NC3=O)C#N` was tested. Which viability did it give?
A: 142

Q: `S=C(NCc1ccc2c(c1)OCO2)N1CCN(c2ncnc3c2oc2ccccc23)CC1` was tested. Which viability did it give?
A: 100
